Test results: patent US20160039825A1 (BIOGEN MA INC., priority 2013, published 2016)
Where a name gives a salt, the structure may show the parent alone.

molecular target: T1, Human ATX protein (Homo sapiens, UniProt Q13822); assay: Autotaxin (ATX) assay, FRET with FS-3 substrate; assay type: biochemical; details: 10 uM compound
T1 construct: made in house
Summary of the method: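 Hydrolysis of the FRET substrate FS-3 (2 μM final) unquenches fluorescein, read at excitation 485 nm and emission 538 nm after 2 h at room temperature, protected from light. Purified human ATX (1.0 μg/mL) and compound were first incubated for 30 min in pH 7.4 Tris/salt buffer containing 1 mg/mL fatty acid-free BSA.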

inhibition at 10 µM [%] | Compound
60 | Nc1cc2n(n1)CCCN(C(=O)OCc1cc(C(F)(F)F)cc(C(F)(F)F)c1)C2 [Example 279, 3,5-Bis(trifluoromethyl)benzyl 2-amino-7,8-dihydro-4H-pyrazolo[1,5-a][1,4]diazepine-5(6H)-carboxylate]

same assay, conditions: upper bound bins (no greater than 100, 250 or 500 nM); FS-3 2 μM, ATX 1.0 μg/mL

IC50 [nM] | Compound
≤ 100 | O=C(O)c1cc2n(n1)CCCN(C(=O)CCc1cc(C(F)(F)F)cc(C(F)(F)F)c1)C2 [Example 82, 5-(3-(3,5-bis(Trifluoromethyl)phenyl)propanoyl)-5,6,7,8-tetrahydro-4H-pyrazolo[1,5-a][1,4]diazepine-2-carboxylic acid]
≤ 100 | CCC1CN(c2cc3n(n2)CCCN(C(=O)OCc2cc(C(F)(F)F)cc(C(F)(F)F)c2)C3)CCN1 (stereo not shown) [Example 341]
≤ 250 | O=C(O)c1cc2n(n1)CCN(C(=O)OCc1cc(C(F)(F)F)cc(C(F)(F)F)c1)C2 [Example 419]
≤ 100 | O=C(OCc1cc(C(F)(F)F)cc(C(F)(F)F)c1)N1CCn2nc(C(=O)N3CCC(O)CC3)cc2C1 [Example 490]
≤ 100 | CN1CCN(C(=O)c2cc3n(n2)CCCN(C(=O)OCc2cc(C(F)(F)F)cc(C(F)(F)F)c2)C3)C2(CCC2)C1 [Example 233]
≤ 100 | O=C(O)c1cc2n(n1)CCCN(C(=O)OCc1cc(Cl)cc(Cl)c1)C2 [Example 7, 5-(((3,5-Dichlorobenzyl)oxy)carbonyl)-5,6,7,8-tetrahydro-4H-pyrazolo[1,5-a][1,4]diazepine-2-carboxylic acid]
≤ 100 | O=C(NC1CC(O)C1)c1cc2n(n1)CCCN(C(=O)OCc1cc(C(F)(F)F)cc(C(F)(F)F)c1)C2 (stereo not shown) [Example 504]
≤ 100 | CNC1CN(C(=O)c2cc3n(n2)CCCN(C(=O)OCc2cc(C(F)(F)F)cc(C(F)(F)F)c2)C3)C1 [Example 242]
≤ 100 | O=C(OCc1cc(C(F)(F)F)cc(C(F)(F)F)c1)N1CCCn2nc(N3CC4CNCC4C3)cc2C1 (stereo not shown) [Example 351]
≤ 100 | O=C(OCc1cc(Cl)cc(C(F)(F)F)c1)N1CCCn2nc(C(=O)N3CCNCC3C(F)(F)F)cc2C1 (stereo not shown) [Example 181]
≤ 500 | O=C(OCc1cc(Cl)cc(Cl)c1)N1CCn2cc(C(F)(F)F)nc2C1 [Example 131, 3,5-Dichlorobenzyl 2-(trifluoromethyl)-5,6-dihydroimidazo[1,2-a]pyrazine-7(8H)-carboxylate]
≤ 100 | O=C(OCc1cc(Cl)cc(C(F)(F)F)c1)N1CCCn2nc(C(=O)N3CCNCC34CCC4)cc2C1 [Example 175]
≤ 100 | O=C(OCc1cc(C(F)(F)F)cc(C(F)(F)F)c1)N1CCn2nc(C3CCNCC3)cc2C1 [Example 443]
≤ 100 | C[C@H]1CCCN1CC(=O)c1cc2n(n1)CCCN(C(=O)OCc1cc(Cl)cc(C(F)(F)F)c1)C2 [Example 262]
≤ 100 | O=C(OCc1cc(Cl)cc(C(F)(F)F)c1)N1CCCn2nc(C3CN4CCC[C@@H]4CO3)cc2C1 (single isomer, unassigned) [Example 252A]
≤ 100 | O=C(O)Cn1cc(-c2cc3n(n2)CCCN(C(=O)OCc2cc(C(F)(F)F)cc(C(F)(F)F)c2)C3)cn1 [Example 412]
≤ 100 | CS(=O)(=O)NC(=O)c1cc2n(n1)CCCN(C(=O)OCc1cc(C(F)(F)F)cc(C(F)(F)F)c1)C2 [Example 299, 3,5-bis(trifluoromethyl)benzyl 2-((methylsulfonyl)carbamoyl)-7,8-dihydro-4H-pyrazolo[1,5-a][1,4]diazepine-5(6H)-carboxylate]
≤ 100 | CC1(C)CN(c2cc3n(n2)CCCN(C(=O)OCc2cc(C(F)(F)F)cc(C(F)(F)F)c2)C3)CCN1 [Example 340]
≤ 100 | O=C(OCc1cc(Cl)cc(C(F)(F)F)c1)N1CCCn2nc(C(=O)N3CCC4NCCC43)cc2C1 (stereo not shown) [Example 166]
≤ 100 | CC(c1cc2n(n1)CCCN(C(=O)OCc1cc(C(F)(F)F)cc(C(F)(F)F)c1)C2)N1CCCCC1 (stereo not shown) [Example 148, 3,5-Bis(trifluoromethyl)benzyl 2-(1-(piperidin-1-yl)ethyl)-7,8-dihydro-4H-pyrazolo[1,5-a][1,4]diazepine-5(6H)-carboxylate]
≤ 250 | O=C(OCc1cc(C(F)(F)F)cc(C(F)(F)F)c1)N1CCCn2nc(CN3CCCCC3)cc2C1 [Example 291]

IC50 [nM] | Compound
≤ 100 | O=C(OCc1cc(Cl)cc(C(F)(F)F)c1)N1CCCn2nc(C(=O)N3CCNC(C(F)(F)F)C3)cc2C1 (stereo not shown) [Example 189]
≤ 100 | CC1(C)CC(Nc2cc3n(n2)CCCN(C(=O)OCc2cc(C(F)(F)F)cc(C(F)(F)F)c2)C3)CCN1 (stereo not shown) [Example 320]
≤ 100 | O=C(OCc1cc(C(F)(F)F)cc(C(F)(F)F)c1)N1CCn2nc(C(=O)N3CC(O)C3)cc2C1 [Example 483]
≤ 100 | O=C(OCc1cc(Cl)cc(C(F)(F)F)c1)N1CCCn2nc(C3CN4CCCC[C@H]4CO3)cc2C1 (mixture of isomers) [Example 253, 3-chloro-5-(trifluoromethyl)benzyl 2-((9aS)-octahydropyrido[2,1-c][1,4]oxazin-3-yl)-7,8-dihydro-4H-pyrazolo[1,5-a][1,4]diazepine-5(6H)-carboxylate]
≤ 100 | O=C(OCc1cc(C(F)(F)F)cc(C(F)(F)F)c1)N1CCCn2nc(C(=O)N3CCNCC34CCC4)cc2C1 [Example 235]
≤ 100 | NCCCCNC(=O)c1cc2n(n1)CCCN(C(=O)OCc1cc(C(F)(F)F)cc(C(F)(F)F)c1)C2 [Example 182]
≤ 100 | CCN1CCN(c2cc3n(n2)CCCN(C(=O)OCc2cc(C(F)(F)F)cc(C(F)(F)F)c2)C3)CC1 [Example 354]
≤ 100 | CC(C)(C)OC(=O)N1CCN(C(=O)c2cc3n(n2)CCN(C(=O)OCc2cc(C(F)(F)F)cc(C(F)(F)F)c2)C3)CC1 [Example 486]
≤ 100 | CC(C)(C)OC(=O)N1CCC=C(c2cc3n(n2)CCN(C(=O)OCc2cc(C(F)(F)F)cc(C(F)(F)F)c2)C3)C1 [Example 498]
≤ 100 | O=C(OCc1cc(C(F)(F)F)cc(C(F)(F)F)c1)N1CCn2nc(C3=CCCNC3)cc2C1 [Example 444]
≤ 100 | O=C(OCc1cc(C(F)(F)F)cc(C(F)(F)F)c1)N1CCn2nc(N3CCNCC3)cc2C1 [Example 394, 3,5-bis(trifluoromethyl)benzyl 2-(piperazin-1-yl)-6,7-dihydropyrazolo[1,5-a]pyrazine-5(4H)-carboxylate]
≤ 100 | NC1CCN(C(=O)c2cc3n(n2)CCN(C(=O)OCc2cc(C(F)(F)F)cc(C(F)(F)F)c2)C3)CC1 [Example 422, 3,5-bis(trifluoromethyl)benzyl 2-(4-aminopiperidine-1-carbonyl)-6,7-dihydropyrazolo[1,5-a]pyrazine-5(4H)-carboxylate hydrochloride]
≤ 100 | O=C(OCc1cc(C(F)(F)F)cc(C(F)(F)F)c1)N1CCCn2nc(CN3CCC(F)CC3)cc2C1 [Example 510]
≤ 100 | CC(C)N1CCN(c2cc3n(n2)CCCN(C(=O)OCc2cc(C(F)(F)F)cc(C(F)(F)F)c2)C3)CC1 [Example 356]
≤ 250 | O=C(OCc1cc(C(F)(F)F)cc(C(F)(F)F)c1)N1CCCn2nc(CNC3CC3)cc2C1 [Example 513]
≤ 100 | Cc1noc(-c2cc3n(n2)CCCN(C(=O)OCc2cc(C(F)(F)F)cc(C(F)(F)F)c2)C3)n1 [Example 118, 3,5-Bis(trifluoromethyl)benzyl 2-(3-methyl-1,2,4-oxadiazol-5-yl)-7,8-dihydro-4H-pyrazolo[1,5-a][1,4]diazepine-5(6H)-carboxylate]
≤ 100 | O=C(CN1CCOCC1)c1cc2n(n1)CCN(C(=O)OCc1cc(C(F)(F)F)cc(C(F)(F)F)c1)C2 [Example 259]
≤ 100 | CN1CCN(S(=O)(=O)c2cc3n(n2)CCCN(C(=O)OCc2cc(C(F)(F)F)cc(C(F)(F)F)c2)C3)CC1 [Example 308]
≤ 500 | O=C(OCc1cc(C(F)(F)F)cc(C(F)(F)F)c1)N1CCCn2nc(CN[C@H]3CC[C@@H](C(=O)O)CC3)cc2C1 [Example 288]
≤ 100 | O=C(O)c1nn2c(c1Cl)CN(C(=O)OCc1cc(C(F)(F)F)cc(C(F)(F)F)c1)CCC2 [Example 110, 5-(((3,5-Bis(trifluoromethyl)benzyl)oxy)carbonyl)-3-chloro-5,6,7,8-tetrahydro-4H-pyrazolo[1,5-a][1,4]diazepine-2-carboxylic acid]
≤ 500 | O=C(OCc1cc(Cl)cc(C(F)(F)F)c1)N1CCn2c(nnc2C(F)(F)F)C1 [Example 135, 3-Chloro-5-(trifluoromethyl)benzyl 3-(trifluoromethyl)-5,6-dihydro-[1,2,4]triazolo[4,3-a]pyrazine-7(8H)-carboxylate]

Compound | IC50 [nM]
O=C(OCc1cc(C(F)(F)F)cc(C(F)(F)F)c1)N1CCCn2nc(CN3C4CCCC3CCC4)cc2C1 [Example 293] | ≤ 100
CN1C2CCCC1CN(C(=O)c1cc3n(n1)CCCN(C(=O)OCc1cc(C(F)(F)F)cc(C(F)(F)F)c1)C3)C2 [Example 230] | ≤ 100
O=C(CCc1cc(Cl)cc(Cl)c1)N1CCn2nc(C(=O)N3C4CCCC3CCC4)cc2C1 [Example 94, 1-(2-(9-Azabicyclo[3.3.1]nonane-9-carbonyl)-6,7-dihydropyrazolo[1,5-a]pyrazin-5(4H)-yl)-3-(3,5-dichlorophenyl)propan-1-one] | ≤ 100
O=C(O)C1CC2CCC(C1)N2C(=O)c1cc2n(n1)CCN(C(=O)CCc1cc(Cl)cc(Cl)c1)C2 (stereo not shown) [Example 93, 8-(5-(3-(3,5-Dichlorophenyl)propanoyl)-4,5,6,7-tetrahydropyrazolo[1,5-a]pyrazine-2-carbonyl)-8-azabicyclo[3.2.1]octane-3-carboxylic acid] | ≤ 500
O=C(O)C1CC2CCC(C1)N2Cc1cc2n(n1)CCCN(C(=O)OCc1cc(C(F)(F)F)cc(C(F)(F)F)c1)C2 (stereo not shown) [Example 296] | ≤ 250
O=C(O)C1CC2CCCC(C1)N2C(=O)c1cc2n(n1)CCN(C(=O)OCc1cc(C(F)(F)F)cc(C(F)(F)F)c1)C2 (stereo not shown) [Example 48, 9-(5-(((3,5-Bis(trifluoromethyl)benzyl)oxy)carbonyl)-4,5,6,7-tetrahydropyrazolo[1,5-a]pyrazine-2-carbonyl)-9-azabicyclo[3.3.1]nonane-3-carboxylic acid] | ≤ 100
